Laboratory results published in patent publication US12454546B2, “Inotodiol ester derivative precursor drug” (CARBOEXPERT INC., priority 2020, dated 2025).
Converted amounts (≈) assume the structure as drawn.

Legend:
physchem [1] = conditions: distilled water, 30 °C, thermodynamic from solid
Procedure: (§1) To measure the solubility of inotodiol esters with respect to water, 5 mg of each sample was suspended in 1 mL of distilled water and treated in an ultrasonic bath for 30 minutes. The mixture was then treated in an ultrasonic bath (Power sonic 410) for 30 minutes. Then, the mixture was incubated at 30° C. for 3 hours. The supernatant obtained after centrifugation (20,000×g, 10 minutes) was filtered through a 0.45 μm membrane filter of [sequence]

[2] = Solubility of inotodiol in organic solvents (Example 1, HPLC-UV-VIS of supernatant); type: physicochemical; conditions: 30 °C
Procedure: To measure the […] solubility of inotodiol, the following was performed.
First, 50 mg of an inotodiol sample was mixed with 1 ml of an organic solvent. Subsequently, the mixture was vortexed and placed in a water bath sonicator for 15 minutes. […]

physchem [3] = conditions: 30 °C, water, thermodynamic from solid
Procedure: as §1

Structure (SMILES): CC(C)=CC[C@@H](O)[C@@H](C)[C@H]1CC[C@@]2(C)C3=C(CC[C@]12C)[C@@]1(C)CC[C@H](O)C(C)(C)[C@@H]1CC3 [Inotodiol, (3S,5R,10S,13R,14R,17R)-17-[(2S,3R)-3-hydroxy-6-methylhept-5-en-2-yl]-4,4,10,13,14-pentamethyl-2,3,5,6,7,11,12,15,16,17-decahydro-1H-cyclopenta[a]phenanthren-3-ol]
- solubility at 3 h (physchem [1]): 0.0005 ± 0.00018 mg/mL (≈ 0.00113 mM)
- Inotodiol concentration ([2]; solvent acetonitrile): 0.976 mg/mL
- Inotodiol concentration ([2]; solvent dichloromethane): 24.675 mg/mL
- Inotodiol concentration ([2]; solvent ethanol): 25.152 mg/mL
- Inotodiol concentration ([2]; solvent ethyl acetate): 8.685 mg/mL
- Inotodiol concentration ([2]; solvent hexane): 0.094 mg/mL
- Inotodiol concentration ([2]; solvent methanol): 7.964 mg/mL
- Inotodiol concentration ([2]; solvent t-butanol): 26.493 mg/mL
- solubility at 3 h (physchem [3]): 31 ± 3.8 mg/mL (≈ 70 mM)
